Measurements published in EP1007530B1, “6-O-SUBSTITUTED ERYTHROMYCIN COMPOUNDS AND METHOD FOR MAKING SAME” (ABBOTT LABORATORIES, priority 1996, dated 1997).

Assays:
Test in all cases: In vitro assay of antibacterial activity (agar dilution MIC)
Format in all cases: cell-based
[1] = test system: Staphylococcus aureus A5177; details: BHI agar, 35-37 °C, 20 to 24 hours, unit assumed
Procedure: (§1) Representative compounds of the present invention were assayed in vitro for antibacterial activity as follows: Twelve petri dishes containing successive aqueous dilutions of the test compound mixed with 10 mL of sterilized Brain Heart Infusion (BHI) agar (Difco 0418-01-5) were prepared. Each plate was inoculated with 1:100 (or 1:10 for slow-growing strains, such as Micrococcus and Streptococcus) dilutions of up to 32 different microorganisms, using a Steers replicator block. The inoculated plates were incubated at 35-37 °C for 20 to 24 hours, In addition, a control plate, using BHI agar containing no test compound, was prepared and incubated at the beginning and end of each test.
(§2) An additional plate containing a compound having known susceptibility patterns for the organisms being tested and belonging to the same antibiotic class as the test compound was also prepared and incubated as a further control, as well as to provide test-to-test comparability.
(§3) After incubation, each plate was visually inspected. The minimum inhibitory concentration (MIC) was defined as the lowest concentration of drug yielding no growth, a slight haze, or sparsely isolated colonies on the inoculum spot as compared to the growth control. […]

[2] = test system: Actinetobacter calcoaceticus CMX 669; details: BHI agar, 35-37 °C, 20 to 24 hours, unit assumed
Procedure: as §1, §2, §3

[3] = test system: Staphylococcus aureus CMX 553; details: BHI agar, 35-37 °C, 20 to 24 hours, unit assumed
Procedure: as §1
(§4) An additional plate containing a compound having known susceptibility patterns for the organisms being tested and belonging to the same antibiotic class as the test compound was also prepared and incubated as a further control, as well as to provide test-to-test comparability. Erythromycin A was used for this purpose.
as §3

[4] = test system: Staphylococcus aureus 1775; details: BHI agar, 35-37 °C, 20 to 24 hours, unit assumed
Procedure: as §1, §4, §3

[5] = test system: Staphylococcus aureus NCTC10649M; details: BHI agar, 35-37 °C, 20 to 24 hours, unit assumed
Procedure: as §1, §4, §3

[6] = test system: Mycobacterium smegmatis ATCC 114; details: BHI agar, 35-37 °C, 20 to 24 hours, unit assumed
Procedure: as §1, §4, §3

Escherichia coli JUHL = details: BHI agar, 35-37 °C, 20 to 24 hours, in µg/mL (unit assumed)
Procedure: as §1, §4, §3

Escherichia coli H560 = details: BHI agar, 35-37 °C, 20 to 24 hours, unit assumed
Procedure: as §1, §4, §3

[7] = test system: Micrococcus luteus ATCC 9341; details: BHI agar, 35-37 °C, 20 to 24 hours, unit assumed
Procedure: as §1, §4, §3

[8] = test system: Providencia struartii CMX 640; details: BHI agar, 35-37 °C, 20 to 24 hours, unit assumed
Procedure: as §1, §4, §3

[9] = test system: Pseudomonas aeruginosa DPHD-5263; details: BHI agar, 35-37 °C, 20 to 24 hours, in µg/mL (unit assumed)
Procedure: as §1, §4, §3

Escherichia coli DC-2 = details: BHI agar, 35-37 °C, 20 to 24 hours, unit assumed
Procedure: as §1, §4, §3

[10] = test system: Pseudomonas aeruginosa DPHD-2862; details: BHI agar, 35-37 °C, 20 to 24 hours, unit assumed
Procedure: as §1, §4, §3

[11] = test system: Staphylococcus epidermidis 3519; details: BHI agar, 35-37 °C, 20 to 24 hours, unit assumed
Procedure: as §1, §4, §3

[12] = test system: Pseudomonas aeruginosa K799/WT; details: BHI agar, 35-37 °C, 20 to 24 hours, unit assumed
Procedure: as §1, §4, §3

[13] = test system: Pseudomonas aeruginosa BMH10; details: BHI agar, 35-37 °C, 20 to 24 hours, in µg/mL (unit assumed)
Procedure: as §1, §4, §3

[14] = test system: Staphylococcus aureus CMX 642A; details: BHI agar, 35-37 °C, 20 to 24 hours, unit assumed
Procedure: as §1, §4, §3

[15] = test system: Enterobacter aerogenes ATCC 13048; details: BHI agar, 35-37 °C, 20 to 24 hours, unit assumed
Procedure: as §1, §4, §3

Pseudomonas capacia 2961 = details: BHI agar, 35-37 °C, 20 to 24 hours, in µg/mL (unit assumed)
Procedure: as §1, §4, §3

[16] = test system: Klebsiella pneumoniae ATCC 8045; details: BHI agar, 35-37 °C, 20 to 24 hours, unit assumed
Procedure: as §1, §4, §3

Escherichia coli KNK 437 = details: BHI agar, 35-37 °C, 20 to 24 hours, unit assumed
Procedure: as §1, §4, §3

[17] = test system: Streptococcus pyogenes EES61; details: BHI agar, 35-37 °C, 20 to 24 hours, unit assumed
Procedure: as §1, §4, §3

[18] = test system: Pseudomonas aeruginosa K799/61; details: BHI agar, 35-37 °C, 20 to 24 hours, unit assumed
Procedure: as §1, §4, §3

[19] = test system: Micrococcus luteus ATCC 4698; details: BHI agar, 35-37 °C, 20 to 24 hours, unit assumed
Procedure: as §1, §4, §3

[20] = test system: Pseudomonas aeruginosa 5007; details: BHI agar, 35-37 °C, 20 to 24 hours, unit assumed
Procedure: as §1, §4, §3

[21] = test system: Enterococcus faecium ATCC 8043; details: BHI agar, 35-37 °C, 20 to 24 hours, unit assumed
Procedure: as §1, §4, §3

[22] = test system: Staphylococcus aureus A-5278; details: BHI agar, 35-37 °C, 20 to 24 hours, unit assumed
Procedure: as §1, §4, §3

Escherichia coli SS = details: BHI agar, 35-37 °C, 20 to 24 hours, unit assumed
Procedure: as §1, §4, §3

[23] = test system: Streptococcus bovis A-5169; details: BHI agar, 35-37 °C, 20 to 24 hours, unit assumed
Procedure: as §1, §4, §3

[24] = test system: Staphylococcus aureus ATCC 6538P; details: BHI agar, 35-37 °C, 20 to 24 hours, unit assumed
Procedure: as §1, §4, §3

[25] = test system: Streptococcus agalactiae CMX 508; details: BHI agar, 35-37 °C, 20 to 24 hours, unit assumed
Procedure: as §1, §4, §3

[26] = test system: Streptococcus pyogenes PIU 2548; details: BHI agar, 35-37 °C, 20 to 24 hours, unit assumed
Procedure: as §1, §4, §3

Candida albicans CCH 442 = details: BHI agar, 35-37 °C, 20 to 24 hours, unit assumed
Procedure: as §1, §4, §3

[27] = test system: Streptococcus pyogenes 930; details: BHI agar, 35-37 °C, 20 to 24 hours, unit assumed
Procedure: as §1, §4, §3

[28] = test system: Nocarrdia asteroides ATCC 9970; details: BHI agar, 35-37 °C, 20 to 24 hours, unit assumed
Procedure: as §1, §4, §3

Structure (SMILES) | MIC [1] [µg/mL] | MIC [2] [µg/mL] | MIC [3] [µg/mL] | MIC [4] [µg/mL] | MIC [5] [µg/mL] | MIC [6] [µg/mL] | MIC (Escherichia coli JUHL) | MIC (Escherichia coli H560) [µg/mL] | MIC [7] [µg/mL] | MIC [8] [µg/mL] | MIC [9] | MIC (Escherichia coli DC-2) [µg/mL] | MIC [10] [µg/mL] | MIC [11] [µg/mL] | MIC [12] [µg/mL] | MIC [13] | MIC [14] [µg/mL] | MIC [15] [µg/mL] | MIC (Pseudomonas capacia 2961) | MIC [16] [µg/mL] | further results
CC[C@H]1OC(=O)[C@H](C)[C@@H](O[C@H]2C[C@@](C)(OC)[C@@H](O)[C@H](C)O2)[C@H](C)[C@@H](O[C@@H]2O[C@H](C)C[C@H](N(C)C)[C@H]2O)[C@](C)(OCC(O)CO)C[C@@H](C)C(=O)[C@H](C)[C@@H](O)[C@]1(C)O (stereo partly shown) [Example 3, Compound of Formula (X): X is =O, R is 2.3-dihydroxypropyl] | 50 | 12.5 | 3.1 | > 100 | 1.56 | 0.78 | 50 | 25 | 0.1 | > 100 | > 100 | 50 | > 100 | 0.78 | > 100 | >100 | 1.56 | > 100 | >100 | > 100 | MIC (Escherichia coli KNK 437): 100 µg/mL; MIC [17]: 0.2 µg/mL; MIC [18]: 1.56 µg/mL; MIC [19]: 1.56 µg/mL; MIC [20]: > 100 µg/mL; MIC [21]: 0.39 µg/mL; MIC [22]: > 100 µg/mL; MIC (Escherichia coli SS): 1.56 µg/mL; MIC [23]: 0.2 µg/mL; MIC [24]: 1.56 µg/mL; MIC [25]: 0.39 µg/mL; MIC [26]: 12.5 µg/mL; MIC (Candida albicans CCH 442): > 100 µg/mL; MIC [27]: > 100 µg/mL
CC[C@H]1OC(=O)[C@H](C)[C@@H](O[C@H]2C[C@@](C)(OC)[C@@H](O)[C@H](C)O2)[C@H](C)[C@@H](O[C@@H]2O[C@H](C)C[C@H](N(C)C)[C@H]2O)[C@](C)(OCC(O)CN=[N+]=[N-])C[C@@H](C)C(=O)[C@H](C)[C@@H](O)[C@]1(C)O (stereo partly shown) [Example 11, Compound of Formula (X): X is =O, R is -CH2-CHOH-CH2-N3] | 6.2 | 25 | 0.78 | > 100 | 0.78 | 0.39 | 100 | 50 | 0.05 | > 100 | > 100 | > 100 | > 100 | 0.78 | > 100 | > 100 | 1.56 | > 100 | > 100 | > 100 | MIC (Escherichia coli KNK 437): > 100 µg/mL; MIC [17]: 0.05 µg/mL; MIC [20]: > 100 µg/mL; MIC [21]: 0.39 µg/mL; MIC [22]: > 100 µg/mL; MIC (Escherichia coli SS): 1.56 µg/mL; MIC [23]: 0.2 µg/mL; MIC [28]: 0.1 µg/mL; MIC [24]: 0.78 µg/mL; MIC [25]: 0.05 µg/mL; MIC [26]: 25 µg/mL; MIC (Candida albicans CCH 442): > 100 µg/mL; MIC [27]: > 100 µg/mL
CC[C@H]1OC(=O)[C@H](C)[C@@H](O[C@H]2C[C@@](C)(OC)[C@@H](O)[C@H](C)O2)[C@H](C)[C@@H](O[C@@H]2O[C@H](C)C[C@H](N(C)C)[C@H]2O)[C@](C)(OCC(O)CN2CCOCC2)C[C@@H](C)C(=O)[C@H](C)[C@@H](O)[C@]1(C)O (stereo partly shown) [Example 6, Comnound of Formula (X): X is =O, R is 2-hydroxy-3-(morpholin-4-yl)propyl] | 25 | 25 | 0.78 | > 100 | 0.78 | 0.2 | > 100 | 100 | 0.1 | > 100 | > 100 | > 100 | > 100 | 0.78 | > 100 | > 100 | 1.56 | > 100 | > 100 | > 100 | MIC (Escherichia coli KNK 437): > 100 µg/mL; MIC [17]: 0.05 µg/mL; MIC [18]: 12.5 µg/mL; MIC [19]: 1.56 µg/mL; MIC [20]: > 100 µg/mL; MIC [21]: 0.39 µg/mL; MIC [22]: > 100 µg/mL; MIC (Escherichia coli SS): 0.78 µg/mL; MIC [24]: 0.78 µg/mL; MIC [25]: 0.1 µg/mL; MIC [26]: 6.2 µg/mL; MIC (Candida albicans CCH 442): > 100 µg/mL; MIC [27]: > 100 µg/mL
CC[C@H]1OC(=O)[C@H](C)[C@@H](O[C@H]2C[C@@](C)(OC)[C@@H](O)[C@H](C)O2)[C@H](C)[C@@H](O[C@@H]2O[C@H](C)C[C@H](N(C)C)[C@H]2O)[C@](C)(OCC(O)CNCc2ccccc2)C[C@@H](C)C(=O)[C@H](C)[C@@H](O)[C@]1(C)O (stereo partly shown) [Example 7, Compound of Formula (X): X is =O, R is 2-hydroxy-3-(benzylamino)propyl] | 3.1 | 12.5 | 0.39 | > 100 | 0.39 | 0.2 | 12.5 | 1.56 | 0.02 | > 100 | > 100 | 6.2 | > 100 | 0.39 | 100 | 25 | 0.39 | 50 | > 100 | 25 | MIC (Escherichia coli KNK 437): 12.5 µg/mL; MIC [17]: 0.01 µg/mL; MIC [18]: 0.39 µg/mL; MIC [19]: 0.78 µg/mL; MIC [20]: > 100 µg/mL; MIC [21]: 0.39 µg/mL; MIC [22]: > 100 µg/mL; MIC (Escherichia coli SS): 0.2 µg/mL; MIC [23]: 0.01 µg/mL; MIC [24]: 0.39 µg/mL; MIC [25]: 0.01 µg/mL; MIC (Candida albicans CCH 442): > 100 µg/mL; MIC [27]: > 100 µg/mL
